Read-outs that look alike come from different tables or passages of the source.
What was measured:
A549 (lung cancer) cells = assay: MTT cytotoxicity assay, A549; type: cell-based, human; conditions: A-549, MTT, 48 h, read-out: IC50 against A-549
Method: (§1) Compounds 1–10 were evaluated for their cytotoxic activities against five human cancer cell lines, HL-60 (human myeloid leukemia), SMMC-7721 (hepatocellular carcinoma), A549 (lung cancer), MCF-7 (breast cancer), and SW480 (colon cancer), and one human normal cell line BEAS-2B (human bronchial epithelial) by the MTT method. DDP (cis-platin) and taxol were used as positive controls.
(§2) Five human cancer cell lines, human myeloid leukemia HL-60, hepatocellular carcinoma SMMC-7721, lung cancer A549, breast cancer MCF-7, and colon cancer SW480 cells, together with one human normal cell line BEAS-2B (human bronchial epithelial), were assayed. Cells were cultured in RPMI-1640 or in DMEM medium (Hyclone, USA), supplemented with 10% fetal bovine serum (Hyclone, USA) in 5% CO2 at 37 °C. The antiproliferative assay was performed according to the MTT (3-(4,5-dimethylthiazol-2-yl)-2,5-diphenyl tetrazolium bromide) method in 96-well microplates, as reported previously, with slight modification. Briefly, 100 μL of adherent cells was seeded into each well of 96-well cell culture plates and allowed to adhere for 12 h before addition of test compounds, while suspended cells were seeded just before the addition of the drug with initial density of 1 × 10^5 cells/mL. Each cancer cell line was exposed to the tested compound at concentrations of 0.0625, 0.32, 1.6, 8, and 40 μM in triplicates for 48 h. Wells with DMSO were used as negative controls, and DDP (cis-platin, Sigma, USA) and taxol were used as a positive control. After compound treatment, cell viability was detected by a Bio-Rad 680 at λ = 595 nm and a cell growth curve was graphed. IC50 values were calculated by Reed and Muench’s method.

[1] = system: SMMC-7721 (hepatocellular carcinoma) cells; assay: MTT cytotoxicity assay, SMMC-7721; type: cell-based, human; conditions: SMMC-7721, MTT, 48 h, read-out: IC50 against SMMC-7721
Method: as §1, §2

[2] = system: MCF-7 (breast cancer) cells; assay: MTT cytotoxicity assay, MCF-7; type: cell-based, human; conditions: MCF-7, MTT, 48 h, read-out: IC50 against MCF-7
Method: as §1, §2

[3] = system: BEAS-2B (human bronchial epithelial) cells; assay: MTT cytotoxicity assay, BEAS-2B normal cell line; type: cell-based; conditions: BEAS-2B human normal cell line, 48 h, read-out: IC50 against BEAS-2B
Method: as §1, §2

[4] = system: HL-60 (human myeloid leukemia) cells; assay: MTT cytotoxicity assay, HL-60; type: cell-based; conditions: HL-60, MTT, 48 h, read-out: IC50 against HL-60
Method: as §1, §2

[5] = system: SW480 (colon cancer) cells; assay: MTT cytotoxicity assay, SW480; type: cell-based, human; conditions: 48 h, read-out: IC50 against SW480
Method: as §1, §2

Compound `COc1cc([C@H]2c3cc(O)c(OC)cc3C[C@@H](CO)[C@@H]2CO)ccc1O` [Compound 7, (+)-isolariciresinol] has an IC50 (A549 (lung cancer) cells; Homo sapiens, A549) of over 40 µM, an IC50 ([1]; Homo sapiens) of over 40 µM and an IC50 ([2]; Homo sapiens, MCF7) of over 40 µM. It also gave an IC50 [3] of over 40 µM, an IC50 ([4]; Homo sapiens) of over 40 µM and an IC50 ([5]; Homo sapiens) of over 40 µM.
Work on `CC(=O)O[C@@]12C[C@@H](C)[C@@]3(O)[C@@H](C=C(CO)C[C@]4(O)C(=O)C(C)=C[C@@H]34)[C@@H]1C2(C)C` [Compound 4, prostratin] yielded an IC50 (A549 (lung cancer) cells; Homo sapiens, A549) of 12.6 µM, an IC50 ([1]; Homo sapiens) of 18.1 µM and an IC50 ([2]; Homo sapiens, MCF7) of 16 µM. For the same compound, the IC50 [3] was 17.4 µM, the IC50 ([4]; Homo sapiens) was 15.6 µM and the IC50 ([5]; Homo sapiens) was 13.3 µM.
Work on `C=C(C)[C@]12C[C@@H](C)[C@@]34OC5(CCCCCCC[C@@H](C)[C@H]6[C@H](C)[C@H](O)[C@@](O)([C@H](O)[C@@]7(COC(=O)/C=C/c8ccccc8)O[C@H]7[C@H]3[C@H]1O5)[C@@H]64)O2` [Compound 1, wikstroelide Q] yielded an IC50 (A549 (lung cancer) cells; Homo sapiens, A549) of over 40 µM, an IC50 ([1]; Homo sapiens) of over 40 µM and an IC50 ([2]; Homo sapiens, MCF7) of over 40 µM. It also gave an IC50 [3] of over 40 µM, an IC50 ([4]; Homo sapiens) of 26.4 µM and an IC50 ([5]; Homo sapiens) of over 40 µM.
For `COc1cc([C@H]2OC[C@H]3[C@@H]2CO[C@H]3c2ccc(O)c(OC)c2)ccc1O` [Compound 6, (+)-epipioresinol], the IC50 (A549 (lung cancer) cells; Homo sapiens, A549) was over 40 µM, the IC50 ([1]; Homo sapiens) was over 40 µM and the IC50 ([2]; Homo sapiens, MCF7) was over 40 µM. The IC50 [3] was over 40 µM, the IC50 ([4]; Homo sapiens) was over 40 µM and the IC50 ([5]; Homo sapiens) was over 40 µM.
`O=C(c1ccc2c(c1)OCO2)[C@H]1CO[C@H](c2ccc3c(c2)OCO3)[C@H]1CO` [Compound 9, (+)-epi-sesaminone] showed an IC50 (A549 (lung cancer) cells; Homo sapiens, A549) of over 40 µM, an IC50 ([1]; Homo sapiens) of over 40 µM and an IC50 ([2]; Homo sapiens, MCF7) of over 40 µM. It also gave an IC50 [3] of over 40 µM, an IC50 ([4]; Homo sapiens) of over 40 µM and an IC50 ([5]; Homo sapiens) of over 40 µM.
With `CCCCC/C=C/C=C/C(=O)O[C@@H]1[C@@H](C)[C@@]2(O)[C@@H](C=C(CO)C[C@]3(O)C(=O)C(C)=C[C@@H]23)[C@@H]2C(C)(C)[C@]12OC(C)=O` [Compound 5, prostratin Q] the IC50 (A549 (lung cancer) cells; Homo sapiens, A549) was 15.8 µM, the IC50 ([1]; Homo sapiens) was 15.1 µM and the IC50 ([2]; Homo sapiens, MCF7) was 15 µM. The IC50 [3] was 16.6 µM, the IC50 ([4]; Homo sapiens) was 15.8 µM and the IC50 ([5]; Homo sapiens) was 14.8 µM.
`CC(=O)O[C@H]1C(=O)[C@@]2(C)[C@H]([C@H](OC(=O)c3ccccc3)[C@]3(O)C[C@H](OC(=O)[C@H](O)[C@@H](NC(=O)c4ccccc4)c4ccccc4)C(C)=C1C3(C)C)[C@]1(OC(C)=O)CO[C@@H]1C[C@@H]2O` [Taxol, taxol, reference compound] was tested, and the IC50 (A549 (lung cancer) cells; Homo sapiens, A549) was under 0.008 µM, the IC50 ([1]; Homo sapiens) was under 0.008 µM and the IC50 ([2]; Homo sapiens, MCF7) was under 0.008 µM. It also gave an IC50 [3] of 5 µM, an IC50 ([4]; Homo sapiens) of under 0.008 µM and an IC50 ([5]; Homo sapiens) of under 0.008 µM.
Compound `COc1cc(C[C@@H]2CO[C@@H](c3ccc(O)c(OC)c3)[C@@H]2CO)ccc1O` [Compound 8, (−)-lariciresinol] has an IC50 (A549 (lung cancer) cells; Homo sapiens, A549) of over 40 µM, an IC50 ([1]; Homo sapiens) of over 40 µM and an IC50 ([2]; Homo sapiens, MCF7) of over 40 µM. For the same compound, the IC50 [3] was over 40 µM, the IC50 ([4]; Homo sapiens) was over 40 µM and the IC50 ([5]; Homo sapiens) was over 40 µM.
`C=C(C)[C@]12C[C@@H](C)[C@@]34OC5(CCCCCCC[C@H](C)[C@H]6[C@H](C)[C@H](OC(=O)c7ccccc7)[C@@](O)([C@H](O)[C@@]7(CO)O[C@H]7[C@H]3[C@H]1O5)[C@@H]64)O2` [Compound 2, pimelea factors P2] gave an IC50 (A549 (lung cancer) cells; Homo sapiens, A549) of 12.1 µM, an IC50 ([1]; Homo sapiens) of 17.5 µM and an IC50 ([2]; Homo sapiens, MCF7) of 12.8 µM. The IC50 [3] was 17.4 µM, the IC50 ([4]; Homo sapiens) was 13.8 µM and the IC50 ([5]; Homo sapiens) was 15.9 µM.
`C=C(C)[C@@]12C[C@@H](C)[C@@]34OC5(CCCCCCC[C@@H](C)[C@H]6[C@H](C)[C@H](OC(=O)c7ccccc7)[C@@](O)([C@H](O)[C@@]7(CO)O[C@H]7[C@H]3[C@H]1O5)[C@@H]64)O2` [Compound 3, pimelea factor P3] gave an IC50 (A549 (lung cancer) cells; Homo sapiens, A549) of 11.1 µM, an IC50 ([1]; Homo sapiens) of 14.9 µM and an IC50 ([2]; Homo sapiens, MCF7) of 14 µM. The IC50 [3] was 15.4 µM, the IC50 ([4]; Homo sapiens) was 13.3 µM and the IC50 ([5]; Homo sapiens) was 14.4 µM.
Work on `N.N.[Cl][Pt][Cl]` [DDP ( cis-platin), cis-platin, reference compound] yielded an IC50 (A549 (lung cancer) cells) of 14.1 µM, an IC50 [1] of 16.2 µM and an IC50 [2] of 16.9 µM. For the same compound, the IC50 [3] was 8.61 µM, the IC50 [4] was 1.25 µM and the IC50 [5] was 18.1 µM.
For `COc1ccc(C[C@@H]2COC(=O)[C@H]2Cc2ccc(OC)c(O)c2)cc1O` [Compound 10, prestegane B], the IC50 (A549 (lung cancer) cells; Homo sapiens, A549) was over 40 µM, the IC50 ([1]; Homo sapiens) was over 40 µM and the IC50 ([2]; Homo sapiens, MCF7) was over 40 µM. For the same compound, the IC50 [3] was over 40 µM, the IC50 ([4]; Homo sapiens) was over 40 µM and the IC50 ([5]; Homo sapiens) was over 40 µM.

Reference: PMC6268896, “Two New Diterpenoids from the Buds of Wikstroemia chamaedaphne” (Molecules, 2012)
